Laboratory results from paper PMC8391236, “Effect of Pterostilbene, a Natural Derivative of Resveratrol, in the Treatment of Colorectal Cancer through Top1/Tdp1-Mediated DNA Repair Pathway” (Cancers, 2021).

Legend:
[1] = test system: siRNA-Tdp1 CL187 cells; assay: Cell viability of Tdp1-silenced cells; assay type: cell-based, Human; settings: siRNA-Tdp1 CL187, CPT 0.5 μM; for sensitivity / efficacy of positive controls: FM 25 μM
Description: (§1) PTE or RE were dissolved in DMSO and diluted with culture medium to 1–100 μM. The final concentration of DMSO was less than 0.1%, and 0.1% DMSO as negative control. […] Exponentially growing cells were seeded in 96-well plates (5 × 10^3 cells/well) for 12 h. Various drugs were added separately and incubated for 24, 48, and 72 h. Cell viability was determined by CCK-8 (Beyotime Biotechnology, Shanghai, China) assay.

[2] = test system: siRNA-Top1 CL187 cells; assay: Cell viability of Top1-silenced cells; assay type: cell-based, Human; settings: siRNA-Top1 CL187; CPT 0.5 μM, FM 25 μM
Description: as §1

[3] = target: Top1 in CL187 cells (Homo sapiens, UniProt P11387); assay: Intracellular Top1 enzyme activity assay; assay type: cell-based; design: endogenous in cells; host or cells: CL187 cells (nuclear, mitochondrial and cytoplasmic extracts); settings: CL187 cells treated 6 h; CPT at 50 μM
Description: (§2) CL187 cells were treated with different concentrations of drugs for 6 h. The supernatant was discarded, and the cells were collected. The extracts of cytoplasm, mitochondria, and nucleus were obtained by the same method as described in Section 2.4.7. The protein concentration of each extract was detected by BCA kit. Enzyme activity reaction was carried out by using 125 ng super helical DNA (pHOT-1) and cell extract. The protein concentration of the extract was guaranteed to be the same in each group. The mixture solution of the pHOT-1 and the cell extract was added into the reaction buffer and incubated for 30 min at 37 °C. The reaction was terminated with loading buffer. The agarose gel electrophoresis was performed, and the images were collected.

[4] = target: T1, Top1 (Homo sapiens, UniProt P11387); assay: Direct Top1 enzyme activity (DNA relaxation) assay; assay type: biochemical; settings: gel electrophoresis
T1 construct: purchased TopoGEN, Buena Vista, CO, USA
T1 sequence (P11387 1-765): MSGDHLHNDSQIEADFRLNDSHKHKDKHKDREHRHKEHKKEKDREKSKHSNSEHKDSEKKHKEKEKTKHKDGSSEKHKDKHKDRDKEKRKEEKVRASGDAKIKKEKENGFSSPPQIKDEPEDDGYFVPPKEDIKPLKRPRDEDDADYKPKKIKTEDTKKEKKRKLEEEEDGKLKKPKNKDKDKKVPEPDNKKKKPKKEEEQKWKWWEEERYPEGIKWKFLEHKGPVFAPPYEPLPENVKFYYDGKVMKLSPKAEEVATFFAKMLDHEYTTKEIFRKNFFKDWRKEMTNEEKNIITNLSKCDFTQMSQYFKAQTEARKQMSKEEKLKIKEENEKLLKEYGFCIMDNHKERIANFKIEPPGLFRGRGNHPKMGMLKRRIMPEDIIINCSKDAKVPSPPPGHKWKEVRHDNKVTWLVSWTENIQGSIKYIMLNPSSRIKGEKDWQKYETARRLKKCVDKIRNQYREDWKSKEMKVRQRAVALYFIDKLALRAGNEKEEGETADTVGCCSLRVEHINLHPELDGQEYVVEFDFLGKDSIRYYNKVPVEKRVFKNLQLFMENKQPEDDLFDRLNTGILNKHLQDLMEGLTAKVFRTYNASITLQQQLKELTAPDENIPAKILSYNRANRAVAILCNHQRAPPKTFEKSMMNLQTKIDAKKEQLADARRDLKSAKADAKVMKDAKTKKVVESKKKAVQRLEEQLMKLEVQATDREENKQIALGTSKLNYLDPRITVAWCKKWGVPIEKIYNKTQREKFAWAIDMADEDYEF
Description: Different concentrations of the drug solution were prepared. The solvent was used as negative control group, and CPT (50 μM) was used as the positive control group. Each sample included 2 units of Top1 (TopoGEN, Buena Vista, CO, USA) and 250 ng super helical DNA (pHOT-1, TopoGEN, Buena Vista, CO, USA). The samples were incubated for 30 min at 37 °C, and then the reaction was stopped with SDS. After digestion with proteinase K (50 μg/mL, 60 min at 37 °C), samples were separated through electrophoresis (1% agarose gel). The electrophoresis was conducted at 180 V constant pressure for 20 min. The gel was immersed in the dye without EB for 30 min, and the images were collected by gel imaging system (Tanon-1600B, Shanghai, China).

[5] = test system: Top1 in CL187 cells; assay: Intracellular Top1 enzyme activity assay; assay type: cell-based, Human; settings: CL187 cells treated 6 h
Description: as §2

[6] = test system: Tdp1-over CL187 cells; assay: Cell viability of Tdp1-overexpressing cells; assay type: cell-based, Human; settings: Tdp1-over CL187; CPT 0.5 μM, FM 25 μM
Description: CL187 cells were cultured on 6-cm dishes at 37 °C for 24 h. The plasmid (2.5 μg) was diluted with 125 μL serum-free medium Opti-MEM, mixed gently, and incubated at room temperature for 5 min. Lipo 3000 (Invitrogen, Waltham, MA, USA) were diluted with 125 μL serum-free medium Opti-MEM, mixed and incubated for 5 min. Mixed the plasmid and Lipo 3000, incubated at room temperature for 20 min, the mixture was added to CL187 cells, the Tdp1 overexpressed plasmid were transfected into CL187 cells.
PTE or RE were dissolved in DMSO and diluted with culture medium to 1–100 μM. The final concentration of DMSO was less than 0.1%, and 0.1% DMSO as negative control. CPT, as Top1 inhibitor, was diluted to 0.5 μM [36, 37], and FM, as Tdp1 inhibitor was diluted to 25 μM [38]. Exponentially growing cells were seeded in 96-well plates (5 × 10^3 cells/well) for 12 h. […] Cell viability was determined by CCK-8 (Beyotime Biotechnology, Shanghai, China) assay. Cell viability and inhibition rate were calculated with the following formulae:Cell viability (%) = [OD450 (sample)/OD450 (control)] × 100(1) Inhibition rate (%) = […] − cell viability (%)(2)
The drug concentration required for inhibiting cell proliferation by 50% (IC50) was determined by interpolation from dose-response curves.

[7] = test system: subcutaneous CL187 xenograft; assay: Subcutaneous CL187 xenograft model; assay type: in vivo, BABLc/nude mice
Description: CL187 cell suspension was collected at 1 × 10^6 /mL, and 0.1 mL cell was inoculated into the right inguinal region of nude mice. The tumor was no metastasis. The diameter of the transplanted tumor in nude mice was measured with a vernier caliper. After 16-day inoculation (the tumor grew to 90 mm^3), the animals were randomly divided into 7 groups (6 mice per group). The drug was administered by intraperitoneal injection. Blank control group was injected with saline. […] According to the preliminary test results. […] Positive control group was injected with irinotecan (20 mg/kg) twice a week, During the experiment, the changes of body weight of nude mice were recorded, and the anti-tumor effect of the samples was dynamically investigated by measuring tumor diameter. On Day 31 post treatment, the nude mice were sacrificed, and the tumor blocks were removed surgically, weighed, and recorded.

[8] = test system: orthotopic CL187 xenograft; assay: Orthotopic CL187 xenograft model; assay type: in vivo, BABLc/nude mice
Description: (§3) The mice were anaesthetized with 10% chloral hydrate and fixed on the operating table. After the abdomen of the mice was disinfected with iodine, a small section of the large intestine was squeezed out of the surgical opening. The 0.1 mL (per mouse) CL187 cell suspension (1 × 10^7 /mL) was inoculated into the colon wall of nude mice. After the inoculation, the large intestine was placed into the mouse abdominal cavity. After the wound was sutured, the mice were put into cages until they naturally woke up. After 10 days of inoculation, the animals were randomly divided into 4 groups (6 mice per group). Vector control group was intraperitoneally injected with 5% DMSO and 95% saline containing 30% HP-β-CD (i.p.). The drug dosage was designed according to the results of the previous pharmacokinetic experiment. Experimental Group 1 was intraperitoneal injected (i.p.) with PTE 100 mg/kg, and experiment Group 2 was intragastric administrated (i.g.) with PTE 500 mg/kg, once a day. The bioavailability of PTE was the same in the animals in the above regimens. Positive control group was injected with irinotecan, 20 mg/kg, twice a week. During the experiment, the changes of body weight of nude mice were recorded. After 21 days, the nude mice were sacrificed, the tumor blocks were removed surgically, weighed, and recorded.
Tumor and organ tissues were paraffin-embedded and sectioned into […] after being fixed in 4% of paraformaldehyde solution for 24 h. The sections were deparaffinized and rehydrated before detection. For histological observation, tumor sections were stained with hematoxylin and eosin (HE), and then observed by an inverted microscopy (Olympus, Japan).
For immunohistochemistry analysis, the sections were treated with 3% hydrogen peroxide for 10 min to block endogenous peroxidase, and then incubated with Ki67 primary antibody for overnight at 4 °C. Subsequently, the sections were treated with secondary antibody at room temperature for 20 min. After being washed with PBS, the sections were incubated with DAB chromogenic solution for 10 min, followed by rewashing in PBS. The sections were counterstained with hematoxylin after DAB coloration. The antibody specificity was confirmed by negative control without primary antibody treatment. Immunopositive areas were observed by an inverted microscope (Olympus, Japan).

[9] = test system: liver, kidney, lung, and paracancerous colon tissues; assay: HE staining of organs of orthotopic xenograft mice; assay type: in vivo; settings: orthotopic xenograft nude mice
Description: as §3, with “and recorded. Tumor and organ tissues were paraffin-embedded and sectioned into […] after being fixed in 4% of paraformaldehyde solution for 24 h. The sections were deparaffinized and rehydrated before detection. For histological observation, tumor sections were stained with hematoxylin and eosin (HE), and then observed by an inverted microscopy (Olympus, Japan).” for “and recorded.”

[10] = 20 mg/kg-i.p. twice a week, 21 days

Compound | inhibition at 0.5 µM ([1]; Homo sapiens, read-out: cell inhibition rate) [%] | sensitivity / efficacy of positive controls [1] | inhibitory effect on cell proliferation of positive controls [2] | Top1 enzyme activity in the nucleus [3] | inhibition of Top1 enzyme activity (SC DNA relaxation) ([4]; 30 min incubation, CPT at 50 uM) | concentration exhibiting the same inhibitory effect on Top1 enzyme activity ([4]; relaxation of supercoiled pHOT-1 DNA, 30 min) [µM] | concentration with the same inhibitory effect on intracellular Top1 enzyme activity ([5]; cell extracts + SC DNA) [µM] | Top1 enzyme activity in mitochondria ([5]; CPT at 50 μM) | sensitivity / response of cells to positive controls [6] | Tumor Weight ([7]; 20 mg/kg i.p. twice a week, Day 31) [g] | adverse reactions during the entire treatment process ([7]; subcutaneous CL187 xenograft nude mice, CPT-11 20 mg/kg, PTE 25-200 mg/kg i.p.) | degree of tumor necrosis (HE) ([8]; 20 mg/kg-i.p.) | Tumor Inhibitory Rate [8, 10] [%] | Tumor Weight [8, 10] [g] | Ki67 labeling rate in tumor tissue ([8]; 20 mg/kg-i.p., vector control 46.53±3.86%) [%] | effect on lung inflammation (HE sections) [9]
CC[C@@]1(O)C(=O)OCc2c1cc1n(c2=O)Cc2cc3ccccc3nc2-1 [CPT, camptothecin, reference compound] | ~90 | significantly increased | hardly exhibited inhibitory effect on cell proliferation | significantly inhibited | could inhibit Top1 enzyme activity | 50 | 50 | significantly inhibited | significantly reduced |  |  |  |  |  |  | 
CCc1c2c(nc3ccc(OC(=O)N4CCC(N5CCCCC5)CC4)cc13)-c1cc3c(c(=O)n1C2)COC(=O)[C@]3(O)CC [CPT-11, irinotecan] |  |  |  |  |  |  |  |  |  | 1.18 ± 0.12 | severe diarrhea, lassitude, and other adverse reactions | +++ (+++ denotes the ratio between 1/2 and 3/4) | 62.91 ± 11.78 | 0.81 ± 0.20 | 22.46 ± 6.78 | could aggravate the inflammatory response
Cl.Cl.N=C(N)c1ccc(-c2ccc(-c3ccc(C(=N)N)cc3)o2)cc1 [FM, Furamidine dihydrochloride, reference compound] |  | failed to exert its efficacy | significantly enhancing the inhibitory effect on the cells |  |  |  |  |  | good response |  |  |  |  |  |  | 
